Laboratory results taken from ChEMBL document CHEMBL1201862, “PubChem BioAssay data set” (2004).
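Five compound concentrations were applied to cells in 96-well plates for 48 hours; endpoints were derived by simple linear interpolation of the resulting dose-response curve. GI50 is the concentration that inhibits growth by half.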 Active and inactive are the calls of the source. No stated cut-off is given here; in the data, active = GI50 up to about 1.1 µM and inactive = higher.

Experiments:
Test in all cases: DTP human tumour cell line panel, 48 h
OVCAR-3 = test system: OVCAR-3
HCT-15 = test system: HCT-15
MDA-N = test system: MDA-N
M14 = test system: M14
SK-OV-3 = test system: SK-OV-3
DU-145 = test system: DU-145
CCRF-CEM = test system: CCRF-CEM
K562 = test system: K562
HOP-62 = test system: HOP-62
UACC-62 = test system: UACC-62
U-251 = test system: U-251
LOX IMVI = test system: LOX IMVI
HL-60 = test system: HL-60
OVCAR-5 = test system: OVCAR-5
COLO 205 = test system: COLO 205
SNB-19 = test system: SNB-19
786-0 = test system: 786-0
HOP-92 = test system: HOP-92
NCI-H23 = test system: NCI-H23
SF-295 = test system: SF-295

**Q.** For `O=c1[nH]c2ccccc2nc1CBr`, which GI50 (OVCAR-3) is on record?
**A.** 1.57 µM (inactive)

**Q.** What about the GI50 (HCT-15) of the same compound?
**A.** 8.95 µM

**Q.** What about the GI50 (MDA-N) of the same compound?
**A.** 12 µM (inactive)

**Q.** What about the GI50 (M14) of the same compound?
**A.** 10.6 µM (inactive)

**Q.** And the GI50 (SK-OV-3)?
**A.** 21.5 µM (inactive)

**Q.** What about the GI50 (DU-145) of the same compound?
**A.** 19.2 µM (inactive)

**Q.** And the GI50 (CCRF-CEM)?
**A.** 0.399 µM (active)

**Q.** What about the GI50 (K562) of the same compound?
**A.** 2.24 µM (inactive)

**Q.** And the GI50 (HOP-62)?
**A.** 21.3 µM (inactive)

**Q.** And the GI50 (UACC-62)?
**A.** 8.11 µM (inactive)

**Q.** What about the GI50 (U-251) of the same compound?
**A.** 9.98 µM (inactive)

**Q.** And the GI50 (LOX IMVI)?
**A.** 0.912 µM (active)

**Q.** And the GI50 (HL-60)?
**A.** 0.213 µM (active)

**Q.** What about the GI50 (OVCAR-5) of the same compound?
**A.** 17.7 µM (inactive)

**Q.** And the GI50 (COLO 205)?
**A.** 5.78 µM (inactive)

**Q.** What about the GI50 (SNB-19) of the same compound?
**A.** 23.5 µM (inactive)

**Q.** And the GI50 (786-0)?
**A.** 2.02 µM (inactive)

**Q.** What about the GI50 (HOP-92) of the same compound?
**A.** 3.39 µM (inactive)

**Q.** And the GI50 (NCI-H23)?
**A.** 14.6 µM (inactive)

**Q.** What about the GI50 (SF-295) of the same compound?
**A.** 12.6 µM (inactive)

**Q.** For `CC1(C)[C@@H]2C[C@H]1c1cnc(-c3ccccn3)cc1[C@H]2C(O)[C@@H]1c2cc(-c3ccccn3)ncc2[C@H]2C[C@@H]1C2(C)C` (stereo not given in full), which GI50 (OVCAR-3) is on record?
**A.** 0.0281 µM (active)

**Q.** And the GI50 (HCT-15)?
**A.** 0.0718 µM

**Q.** What about the GI50 (MDA-N) of the same compound?
**A.** 0.627 µM (active)

**Q.** And the GI50 (M14)?
**A.** 0.082 µM (active)

**Q.** And the GI50 (SK-OV-3)?
**A.** 0.0867 µM (active)

**Q.** What about the GI50 (DU-145) of the same compound?
**A.** 0.125 µM (active)

**Q.** What about the GI50 (CCRF-CEM) of the same compound?
**A.** < 0.0222 µM (active)

**Q.** What about the GI50 (K562) of the same compound?
**A.** 0.124 µM (active)

**Q.** And the GI50 (HOP-62)?
**A.** 0.073 µM (active)

**Q.** What about the GI50 (UACC-62) of the same compound?
**A.** 0.247 µM (active)

**Q.** And the GI50 (U-251)?
**A.** 0.0741 µM (active)

**Q.** What about the GI50 (LOX IMVI) of the same compound?
**A.** 0.0272 µM (active)

**Q.** And the GI50 (HL-60)?
**A.** 0.0212 µM (active)

**Q.** And the GI50 (OVCAR-5)?
**A.** 1.11 µM (active)

**Q.** What about the GI50 (COLO 205) of the same compound?
**A.** 0.161 µM (active)

**Q.** And the GI50 (SNB-19)?
**A.** 0.301 µM (active)

**Q.** What about the GI50 (786-0) of the same compound?
**A.** 0.0451 µM (active)

**Q.** What about the GI50 (HOP-92) of the same compound?
**A.** 0.322 µM (active)

**Q.** What about the GI50 (NCI-H23) of the same compound?
**A.** 0.189 µM (active)

**Q.** And the GI50 (SF-295)?
**A.** 0.0721 µM (active)

**Q.** For `CC(C)N(c1cc2c(cc1F)c(=O)c(C(=O)O)cn2-c1ccc(N2CCN(C)CC2)cn1)C(C)C`, which GI50 (OVCAR-3) is on record?
**A.** > 100 µM (inactive)

**Q.** And the GI50 (HCT-15)?
**A.** > 100 µM

**Q.** And the GI50 (MDA-N)?
**A.** > 100 µM (inactive)

**Q.** And the GI50 (M14)?
**A.** > 100 µM (inactive)

**Q.** And the GI50 (SK-OV-3)?
**A.** > 100 µM (inactive)

**Q.** What about the GI50 (DU-145) of the same compound?
**A.** > 100 µM (inactive)

**Q.** And the GI50 (CCRF-CEM)?
**A.** > 100 µM (inactive)

**Q.** And the GI50 (K562)?
**A.** > 100 µM (inactive)

**Q.** And the GI50 (HOP-62)?
**A.** > 100 µM (inactive)

**Q.** What about the GI50 (UACC-62) of the same compound?
**A.** > 10 µM (inactive)

**Q.** And the GI50 (U-251)?
**A.** > 100 µM (inactive)

**Q.** And the GI50 (LOX IMVI)?
**A.** > 100 µM (inactive)

**Q.** And the GI50 (HL-60)?
**A.** > 100 µM (inactive)

**Q.** What about the GI50 (OVCAR-5) of the same compound?
**A.** > 100 µM (inactive)

**Q.** And the GI50 (COLO 205)?
**A.** > 100 µM (inactive)

**Q.** And the GI50 (SNB-19)?
**A.** > 100 µM (inactive)

**Q.** What about the GI50 (786-0) of the same compound?
**A.** > 100 µM (inactive)

**Q.** And the GI50 (HOP-92)?
**A.** > 100 µM (inactive)

**Q.** What about the GI50 (NCI-H23) of the same compound?
**A.** > 100 µM (inactive)

**Q.** What about the GI50 (SF-295) of the same compound?
**A.** > 100 µM (inactive)
